Experimental data reported in the supplement of paper PMC8671470.
± gives the standard deviation of the averaged measurements.

How the values were obtained:
[1] = system: HL-60; assay: cell viability (% survival relative to DMSO control); higher = less cytotoxic; conditions: 72 h
Method in brief: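 HL-60 cells in RPMI 1640 with 10% FBS were rescreened against the full library on 384-well plates at five tenfold concentrations, 1–10,000 nM, in duplicate. Each screen was run with DMSO or 100 nM of one of three metabolic inhibitors, for 72 h at 37 °C, 5% CO2. Viability was read by CellTiter-Glo and normalised to DMSO and 10 μM proteasome-inhibitor wells. Where given, area under the curve came from four-parameter log-logistic fits (drc, PharmacoGx).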

[2] = system: MV4-11; assay: cell viability (% survival relative to DMSO control, bortezomib = 0%); higher = less cytotoxic; conditions: 72 h
Method in brief: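 Fifteen myeloid leukaemia cell lines (10 AML, 5 CML) were seeded at a density titrated to the linear growth range. They went into 384-well plates with compounds pre-printed at 1, 10, 100, 1000 or 10000 nM in duplicate. After 72 h at 37 °C with 5% CO2, viability was read by CellTiter-Glo luminescence. Values are percent survival, with vehicle set to 100% and a 10 µM positive control to 0%, averaged over the duplicates.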

[3] = 0.001 µM, co-treatment: AZD3965 100 nM
[4] = 0.001 µM, co-treatment: DMSO vehicle
[5] = 0.001 µM, co-treatment: GSK2194069 100 nM
[6] = 0.001 µM, co-treatment: pictilisib 100 nM
[7] = 0.01 µM, co-treatment: AZD3965 100 nM
[8] = 0.01 µM, co-treatment: DMSO vehicle
[9] = 0.01 µM, co-treatment: GSK2194069 100 nM
[10] = 0.01 µM, co-treatment: pictilisib 100 nM
[11] = 0.1 µM, co-treatment: AZD3965 100 nM
[12] = 0.1 µM, co-treatment: DMSO vehicle
[13] = 0.1 µM, co-treatment: GSK2194069 100 nM
[14] = 0.1 µM, co-treatment: pictilisib 100 nM
[15] = 1 µM, co-treatment: AZD3965 100 nM
[16] = 1 µM, co-treatment: DMSO vehicle
[17] = 1 µM, co-treatment: GSK2194069 100 nM
[18] = 1 µM, co-treatment: pictilisib 100 nM
[19] = 10 µM, co-treatment: AZD3965 100 nM
[20] = 10 µM, co-treatment: DMSO vehicle
[21] = 10 µM, co-treatment: GSK2194069 100 nM
[22] = 10 µM, co-treatment: pictilisib 100 nM

| SMILES | cell viability [1, 3] [%] | cell viability [1, 4] [%] | cell viability [1, 5] [%] | cell viability [1, 6] [%] | cell viability [1, 7] [%] | cell viability [1, 8] [%] | cell viability [1, 9] [%] | cell viability [1, 10] [%] | cell viability [1, 11] [%] | cell viability [1, 12] [%] | cell viability [1, 13] [%] | cell viability [1, 14] [%] | cell viability [1, 15] [%] | cell viability [1, 16] [%] | cell viability [1, 17] [%] | cell viability [1, 18] [%] | cell viability [1, 19] [%] | cell viability [1, 20] [%] | cell viability [1, 21] [%] | cell viability [1, 22] [%] | cell viability ([2]; 1 nM) [%] | cell viability ([2]; 10 nM) [%] | cell viability ([2]; 100 nM) [%] | cell viability ([2]; 1000 nM) [%] | cell viability ([2]; 10000 nM) [%] |
| --- | --- | --- | --- | --- | --- | --- | --- | --- | --- | --- | --- | --- | --- | --- | --- | --- | --- | --- | --- | --- | --- | --- | --- | --- | --- |
| CCCCN1C[C@H](O)[C@@H](O)[C@H](O)[C@H]1CO [Miglustat] | 106 ± 3.3 | 101 ± 5.3 | 91.5 ± 4.9 | 104 ± 2.5 | 98.2 ± 7.3 | 101 ± 7.8 | 94.4 ± 10 | 109 ± 10 | 106 ± 6.2 | 103 ± 5.5 | 104.5 ± 0.19 | 112 ± 28 | 96.6 ± 2.6 | 98.7 ± 2 | 99.5 ± 5.5 | 107 ± 3.2 | 100 ± 4.3 | 98 ± 1.2 | 101 ± 8.5 | 101 ± 4.7 | 99.2 | 91.3 | 103 | 94.4 | 92.2 |
| CCCCC/C=C\C/C=C\C/C=C\C/C=C\CCCCN1C(=O)C=CC1=O [N-Arachidonylmaleimide] | 98.7 ± 5.8 | 92.6 ± 2.7 | 96.8 ± 12 | 96.4 ± 4.4 | 89.7 ± 24 | 95.4 ± 5.9 | 84.8 ± 18 | 84.8 ± 1.7 | 98.58 ± 0.45 | 101.04 ± 0.026 | 98.4 ± 4.1 | 97 ± 4.4 | 99.6 ± 8.7 | 101 ± 7.1 | 100 ± 3.1 | 97.89 ± 0.76 | 101 ± 1.9 | 100.9 ± 0.64 | 100.5 ± 0.71 | 103 ± 2.2 | 82.1 | 97.8 | 106 | 93.2 | 95.3 |
| CCCCCCCCCCC[C@@H](C[C@@H]1OC(=O)[C@H]1CCCCCC)OC(=O)[C@H](CC(C)C)NC=O [Orlistat] | 98.6 ± 3.3 | 93.7 ± 0.7 | 94.4 ± 1.7 | 99.1 ± 2.1 | 99.5 ± 3.5 | 105 ± 2.1 | 96.4 ± 6.2 | 109 ± 6.4 | 102 ± 4.7 | 104 ± 3.7 | 109 ± 24 | 95.6 ± 3.8 | 94.9 ± 5.9 | 98.57 ± 0.82 | 94.7 ± 3.8 | 94.4 ± 7.5 | 100 ± 1.6 | 99.8 ± 2.4 | 77.7 ± 8.3 | 90.5 ± 10 | 107 | 97.2 | 71.6 | 109 | 79.8 |
| COc1ccc(C(=O)Nc2c(Cl)cncc2Cl)cc1OC1CCCC1 [Piclamilast] | 104 ± 0.16 | 101 ± 4.7 | 101.3 ± 0.13 | 107 ± 1.1 | 104 ± 3.2 | 100.9 ± 0.19 | 100 ± 4.4 | 107 ± 3.4 | 95.5 ± 6.8 | 98.4 ± 1.4 | 98.8 ± 2 | 96.4 ± 8.2 | 105 ± 6.2 | 97.54 ± 0.89 | 97.1 ± 1.4 | 95.35 ± 0.29 | 107 ± 5.9 | 104.6 ± 0.65 | 109.3 ± 0.53 | 106 ± 11 | 92.5 | 110 | 92.8 | 118 | 114 |
